Results published in publication PMC7961763, “Semi-Synthesis of Harringtonolide Derivatives and Their Antiproliferative Activity” (Molecules, 2021).
Read-outs that look alike come from different tables or passages of the source.

Key:
[1] = system: Huh-7 (human hepatoma cancer cell line); assay: MTT assay, cytotoxicity against Huh-7; format: cell-based; settings: read-out: IC50 Huh-7
Protocol: (§1) All the synthesized derivatives of HO were tested for their antiproliferative activity against four human cancer cell lines, including the HCT-116, A375, A-549, and Huh-7 cell lines, using the MTT assay. Cisplatin was used as a positive control, while lead compound HO (1) was also included in the study for comparison.
(§2) HCT-116 (Human colon cancer cell line), A375 (human melanoma cancer cell line), A-549 (human lung adenocarcinoma cell line), Huh-7 (human hepatoma cancer cell line), and L-02 (normal hepatic cell line) were purchased from the Cell Bank of Shanghai Institute of Biochemistry and Cell Biology, Chinese Academy of Sciences (Shanghai, China). The cells were cultured in Dulbecco’s modified Eagle medium (DMEM; NY, USA), which were all supplemented with 10% fetal bovine serum (FBS; NY, USA) at 37 °C with 5% CO2.
(§3) The cytotoxic activity was evaluated using the MTT assay. Briefly, cells were seeded in 96-well plates at a density of 5 × 10^3 cells/well in 100 μL of DMEM medium at 37 °C for 24 h. Stock solutions of test compounds were prepared in DMSO at concentration of 50 mM, and twofold serial dilution with a culture medium was performed to obtain appropriate concentrations right before the assay. After that, the cells were incubated with synthetic derivatives or cisplatin as a positive control at the various concentrations (0.78125-50 μM) for 48 h. Then, 20 μL of 3-(4,5-Dimethylthiazol-2-yl)-2,5-diphenyltetrazolium bromide (MTT, Aladdin, Shanghai, China) solution (5 mg/mL in PBS) was added, and then the cells were incubated at 37 °C for an additional 4 h. The supernatant was removed, and 150 μL of dimethyl sulfoxide was added to dissolve the MTT formazan. The optical density (OD) was measured on a microplate reader (SpectraMax Plus 384, Molecular Devices, Sunnyvale, CA, USA) at a wavelength of 570 nm. The cytotoxic activity was expressed as the IC50 values. The above tests were repeated three times in parallel. Vehicle DMSO (0.1%) was used as a negative control.

[2] = system: human normal hepatic L-02 cells; assay: MTT assay, cytotoxicity on normal L-02 cells; format: cell-based; settings: for IC50: Homo sapiens, read-out: IC50 L-02; for SI (selectivity index): IC50 (L-02)/IC50 (Huh-7)
Protocol: The selectivity index is crucial for drug development, because it could mediate side effects, including tissues toxicity. Therefore, according to cytotoxic activity results, compounds 6 and 10 with potent cytotoxicity in Huh-7 cells were selected to investigate the selectivity between normal and cancer cells. These two compounds were tested on human normal hepatic L-02 cells with HO as control.
as §2, §3

[3] = system: A-549 (human lung adenocarcinoma cell line); assay: MTT assay, cytotoxicity against A549; format: cell-based; settings: read-out: IC50 A549
Protocol: as §1, §2, §3

[4] = system: HCT-116 (human colon cancer cell line); assay: MTT assay, cytotoxicity against HCT-116; format: cell-based; settings: read-out: IC50 HCT-116
Protocol: as §1, §2, §3

[5] = system: A375 (human melanoma cancer cell line); assay: MTT assay, cytotoxicity against A375; format: cell-based; settings: read-out: IC50 A375
Protocol: as §1, §2, §3

[6] = set-up: method as in PMID 18523925, PMID 29182349, PMID 31184894; settings: compared with HO; cited from earlier work
[7] = L02, MTT, 48 h, normal hepatic L-02 cells

For Cc1cc(=O)cc2c3c1C1OC4C5OC(=O)C(C=C2)(C4C)C3C15 [Compound 6, (3R,4aR,10aS,11S)-5,11-dimethyl-2a,3,4a,10a1-tetrahydro-1H-2,4-dioxa-3,10a methanocyclohepta[bc]cyclopenta[jk]acenaphthylene-1,7(2a1H)-dione], the IC50 ([1]; Homo sapiens, Huh-7, 48 h, MTT, 48 h, Huh-7 cells) was 1.19 ± 0.08 µM, the IC50 [2, 7] was 67.2 ± 0.43 µM and the “SI (selectivity index)” value [2] was 56.5. For the same compound, the “selectivity index relative to HO” value ([2]; SI between Huh-7 and L-02, compared with HO) was 20 times, the IC50 ([3]; Homo sapiens, A549, 48 h, MTT, 48 h, A549 cells) was 5.47 ± 0.13 µM and the IC50 ([4]; Homo sapiens, HCT-116, 48 h, MTT, 48 h, HCT-116 cells) was 0.86 ± 0.05 µM. The IC50 ([5]; Homo sapiens, A-375, 48 h, MTT, 48 h, A375 cells) was 4.85 ± 0.42 µM.

With Cc1cc(=O)cc2c3c1C1OC4C5OC(=O)C(CC2O)(C4C)C3C15 [Compound 10, (3R,4aR,9S,10aS,11S)-9-hydroxy-5,11-dimethyl-2a,3,4a,9,10,10a1-hexahydro-1H-2,4-dioxa-3,10a-methanocyclohepta[bc]cyclopenta[jk]acenaphthylene-1,7(2a1H)-dione] the IC50 ([1]; MTT, 48 h, Huh-7 cells) was 6.34 ± 0.32 µM, the IC50 [2, 7] was 22.3 ± 1.11 µM and the “SI (selectivity index)” value [2] was 3.5. For the same compound, the IC50 ([3]; MTT, 48 h, A549 cells) was 8.25 ± 0.2 µM, the IC50 ([4]; MTT, 48 h, HCT-116 cells) was 2.29 ± 0.27 µM and the IC50 ([5]; MTT, 48 h, A375 cells) was 5.79 ± 1.26 µM.

With Cc1cc(=O)cc2c3c1[C@@H]1O[C@H]4[C@@H]5OC(=O)[C@](CC2)([C@@H]4C)[C@H]3[C@@H]51 [HO (1), Harringtonolide] the IC50 ([1]; Homo sapiens, Huh-7, 48 h) was 1.25 ± 0.08 µM, the IC50 ([2]; L02, 48 h) was 3.46 ± 0.36 µM and the “SI (selectivity index)” value [2] was 2.8. The IC50 ([3]; Homo sapiens, A549, 48 h) was 1.67 ± 0.23 µM, the IC50 ([4]; Homo sapiens, HCT-116, 48 h) was 0.61 ± 0.03 µM and the IC50 ([5]; Homo sapiens, A-375, 48 h) was 1.34 ± 0.23 µM.

For CC1=C[C@@H](O)[C@H](O)[C@@]2(O)CCC34C(=O)OC5C6C3C2=C1[C@@H]6O[C@@H]5C4C (some centres unmarked) [fortalpinoid K], the “cytotoxic activities (result in words)” value [6] is given as “losing of cytotoxic activities”.
